According to US20080269060A1, “Herbicidal Formulation” (priority 2004, published 2008):
In brackets after ≈: the same amount, converted by molar mass. Where two headings read alike, the source gives them in different places.

Legend:
[1] = water, cited from earlier work
[2] = Storage stability of 1% mesotrione / isoxaflutole salt mixtures, 8 weeks at +45° C. vs −18° C.; format: physicochemical; set-up: Start: unit not given here; details: for 45° C. / % decomposition: 8 weeks at 45° C.; for Start: held at −18° C. 8 weeks
Protocol: Millbase preparations of mesotrione and isoxaflutole were made using the following method:
The sample is placed in a round bottomed flask (˜140 mls) and mixed at 150 rpm for 15 minutes until homogeneous. An equal volume of glass beads is added to the flask (0.8-1.0 mm diameter) and the sample is milled at 650 rpm of 60 minutes. The particle size was checked. Further milling of the sample continued (60 minutes for mesotrione and 150 minutes for isoxaflutole). The particle size was checked again and all particles met the specification of 5 microns (D(4,3) volume weighted mean diameter).
The samples were extracted under vacuum through a sieve to disengage the beads from the millbases. The two millbases shown below were checked for AI content and used in the preparation of the salt mixtures. The final mixtures (see below) were then placed on storage at −18° C. (controlled initial sample) and +45° C. for 8 weeks. Analysis was then carried out using validated methods. The salts used were: glyphosate potassium aqueous solution; diquat dibromide aqueous solution; paraquat dichloride aqueous solution.
Analytical Results: storage time was 8 weeks; sample denoted as “start” was held at −18° C. for the same period.

[3] = Amount of mesotrione in solution by UV-visible spectrophotometry in aqueous electrolyte; format: physicochemical; details: pH approximately 5
Protocol: Eight aqueous millbase formulations were made comprising mesotrione millbase (12 g/L or 10,000 approximately) and varying amounts of glyphosate-potassium, ammonium sulphate, and sodium chloride. All samples were held at a pH of approximately 5 by using phosphoric acid for adjustment. The amount of mesotrione in solution was determined using UV-visible spectrophotometry, since the aqueous solubility of mesotrione is related to the expected rate of decomposition of this active ingredient in such systems.

[4] = 1% active and diquat pH ~4, Salt % 7.50 (as diquat anion)
[5] = 1% active and diquat pH ~4, Salt % 15.00 (as diquat anion)
[6] = 1% active and diquat pH ~4, Salt % 22.50 (as diquat anion)
[7] = 1% active and glyphosate pH ~5, Salt % 15.00 (as glyphosate acid equivalent)
[8] = 1% active and glyphosate pH ~5, Salt % 45.00 (as glyphosate acid equivalent)
[9] = 1% active and paraquat pH ~4, Salt % 10.00 (as paraquat anion)
[10] = 1% active and paraquat pH ~4, Salt % 20.00 (as paraquat anion)
[11] = 1% active and paraquat pH ~4, Salt % 30.00 (as paraquat anion)
[12] = 1% active, no salt, adjusted pH 2
[13] = 1% mesotrione not adjusted pH 5 (pH ~4.5), no salt
[14] = 1% isoxaflutole unadjusted pH 7.0, no salt

For `CS(=O)(=O)c1ccc(C(=O)C2C(=O)CCCC2=O)c([N+](=O)[O-])c1` [Mesotrione, 2-(4-methylsulphonyl-2-nitrobenzoyl)cyclohexane-1,3-dione], the solubility ([1]; pH 4.8, 20° C.) is given as 2.2 mg/mL (≈ 6.48 mM), the solubility ([1]; pH 6.9, 20° C.) is given as 15 mg/mL (≈ 44.2 mM) and the solubility ([1]; pH 9, 20° C.) is given as 22 mg/mL (≈ 64.8 mM). The “45° C.” value [2, 4] was 0.96, the “% decomposition” value [2, 4] was 9.43% and the Start [2, 4] was 1.06. For the same compound, the “45° C.” value [2, 5] was 0.93, the “% decomposition” value [2, 5] was 13.08% and the Start [2, 5] was 1.07. For the same compound, the “45° C.” value [2, 6] was 0.86, the “% decomposition” value [2, 6] was 21.10% and the Start [2, 6] was 1.09. The “45° C.” value [2, 7] was 0.86, the “% decomposition” value [2, 7] was 18.1% and the Start [2, 7] was 1.05. The “45° C.” value [2, 8] was 0.80, the “% decomposition” value [2, 8] was 14.9% and the Start [2, 8] was 0.94. The “45° C.” value [2, 9] was 0.96, the “% decomposition” value [2, 9] was 12.73% and the Start [2, 9] was 1.10. The “45° C.” value [2, 10] was 0.98, the “% decomposition” value [2, 10] was 12.50% and the Start [2, 10] was 1.12. For the same compound, the “45° C.” value [2, 11] was 0.90, the “% decomposition” value [2, 11] was 18.18% and the Start [2, 11] was 1.10. For the same compound, the “45° C.” value [2, 12] was 0.96, the “% decomposition” value [2, 12] was 10.28% and the Start [2, 12] was 1.07. For the same compound, the “45° C.” value [2, 13] was 0.83, the “% decomposition” value [2, 13] was 34.65% and the Start [2, 13] was 1.27. For the same compound, the “Concentration of mesotrione in solution” value ([3]; Ammonium sulphate solution 100 g per litre) was 625 ppm, the “Concentration of mesotrione in solution” value ([3]; Ammonium sulphate solution 200 g per litre) was 504 ppm and the “Concentration of mesotrione in solution” value ([3]; Ammonium sulphate solution 300 g per litre) was 391 ppm. For the same compound, the “Concentration of mesotrione in solution” value ([3]; Ammonium sulphate solution 400 g per litre) was 271 ppm, the “Concentration of mesotrione in solution” value ([3]; Ammonium sulphate solution 500 g per litre) was 263 ppm and the “Concentration of mesotrione in solution” value ([3]; Potassium glyphosate 100 g per litre) was 1220 ppm. For the same compound, the “Concentration of mesotrione in solution” value ([3]; Potassium glyphosate 200 g per litre) was 700 ppm, the “Concentration of mesotrione in solution” value ([3]; Potassium glyphosate 300 g per litre) was 480 ppm and the “Concentration of mesotrione in solution” value ([3]; Potassium glyphosate 360 g per litre) was 290 ppm. For the same compound, the “Concentration of mesotrione in solution” value ([3]; Potassium glyphosate 400 g per litre) was 210 ppm, the “Concentration of mesotrione in solution” value ([3]; Potassium glyphosate 500 g per litre) was 180 ppm and the “Concentration of mesotrione in solution” value ([3]; Potassium glyphosate 600 g per litre) was 170 ppm. The “Concentration of mesotrione in solution” value ([3]; Potassium glyphosate 640 g per litre) was 160 ppm, the “Concentration of mesotrione in solution” value ([3]; Sodium Chloride 50 g per litre) was 605 ppm and the “Concentration of mesotrione in solution” value ([3]; Sodium Chloride 105 g per litre) was 549 ppm. For the same compound, the “Concentration of mesotrione in solution” value ([3]; Sodium Chloride 165 g per litre) was 510 ppm, the “Concentration of mesotrione in solution” value ([3]; Sodium Chloride 230 g per litre) was 479 ppm and the “Concentration of mesotrione in solution” value ([3]; Sodium Chloride 300 g per litre) was 443 ppm. For the same compound, the “Concentration of mesotrione in solution” value ([3]; electrolyte: None) was 4700 ppm.

For `CS(=O)(=O)c1cc(C(F)(F)F)ccc1C(=O)c1cnoc1C1CC1` [Isoxaflutole, 5-cyclopropyl-4-(2-methylsulfonyl-4-trifluoromethyl)benzoylisoxazole], the “45° C.” value [2, 4] was 0.94, the “% decomposition” value [2, 4] was 11.30% and the Start [2, 4] was 1.06. The “45° C.” value [2, 5] was 0.94, the “% decomposition” value [2, 5] was 9.50% and the Start [2, 5] was 1.04. For the same compound, the “45° C.” value [2, 6] was 0.87, the “% decomposition” value [2, 6] was 16.50% and the Start [2, 6] was 1.04. The “45° C.” value [2, 9] was 0.99, the “% decomposition” value [2, 9] was 6.00% and the Start [2, 9] was 1.05. For the same compound, the “45° C.” value [2, 10] was 0.90, the “% decomposition” value [2, 10] was 12.00% and the Start [2, 10] was 1.02. For the same compound, the “45° C.” value [2, 11] was 0.80, the “% decomposition” value [2, 11] was 7.00% and the Start [2, 11] was 0.86. The “45° C.” value [2, 12] was 1.02, the “% decomposition” value [2, 12] was “nil” and the Start [2, 12] was 0.98. The “45° C.” value [2, 14] was 0.85, the “% decomposition” value [2, 14] was 17.00% and the Start [2, 14] was 1.06.
